ChEMBL document CHEMBL4834488, “Improved Synthesis of New FDA-Approved Treatment for KRAS G12C Mutation in Non-small Cell Lung Cancer” (ACS Med Chem Lett, 2021)

Assay: AUC in non-small-cell lung cancer/colorectal cancer patient serum at 960 mg, po
Type: ADME, cell-free
Set-up: dose 960 mg
Conditions: human

Molecule `C=CC(=O)N1CCN(c2nc(=O)n(-c3c(C)ccnc3C(C)C)c3nc(-c4c(O)cccc4F)c(F)cc23)[C@@H](C)C1` [SOTORASIB] has an AUC of 65300 ng·h/mL.
